Results published in publication PMC11604048, “Constrained TACC3 peptidomimetics for a non-canonical protein–protein interface elucidate allosteric communication in Aurora-A kinase” (Chemical Science, 2024).
Read-outs that look alike come from different tables or passages of the source. One block for each compound: values may come before it. *1 amine or outer side, *2 acyl side, *3 side chain or, on linkers, in order; H or OH if unused. Where a SMILES comes first, the peptide text is derived from it. Bridges are numbered along the chain shown (N, C = ends). [ ]: non-standard residue; d: D form. Biphenyl(4,4'-CH2)2 = c1cc(-c2ccc(C[*:2])cc2)ccc1C[*:1]; Maleimide(3,4-diyl) = O=C1NC(=O)C([*:2])=C1[*:1]; Pro(trans-4-F) = O=C(O)[C@@H]1C[C@@H](F)CN1; Phe(4-Br) = N[C@@H](Cc1ccc(Br)cc1)C(=O)O

Molecular target: T1, Aurora-A122-403-C290A/C393A (Homo sapiens, UniProt O14965, C290A/C393A)
T1 construct: Human Aurora-A kinase domain 122-403 wild-type or C290A/ C393A mutant; His tag (pET30TEV vector) (N, cleaved yes); made in house; host or cells: E. coli RIL, co-expressed with lambda phosphatase (Aurora-A); tracer by solid phase synthesis
T1 sequence (O14965 122-403 C290A/C393A): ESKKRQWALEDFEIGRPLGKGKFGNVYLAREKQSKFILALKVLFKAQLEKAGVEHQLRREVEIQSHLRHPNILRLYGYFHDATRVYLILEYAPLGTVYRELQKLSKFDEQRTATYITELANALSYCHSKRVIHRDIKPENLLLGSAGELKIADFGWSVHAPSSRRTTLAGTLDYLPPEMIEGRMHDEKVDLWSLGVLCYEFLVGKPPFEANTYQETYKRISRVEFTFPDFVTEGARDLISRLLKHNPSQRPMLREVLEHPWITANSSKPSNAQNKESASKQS
Assay: Competition FA assay against FAM-Ahx-TACC3 522-536 tracer
Format: binding
Method: Once completed, the mixtures were transferred into SPPS fritted reaction vessels and washed with H2O (5X, 10 mL, 2 min), DMF (5X, 5mL, 2 min) and DCM (5X, 5 mL, 2 min). The clean resins were dried under vacuum and the cyclic peptides cleaved from the resin following the general procedures described in previous sections. After Et2O precipitation, the crude materials were freeze-dried and redissolved in H2O/MeCN/TFA 90/10/0.1% v/v for preparative HPLC purification.
All disulfide peptide variants (ox) were produced in situ from their free-thiol solid precursors. For this, 2 mg of the pure peptide materials were dissolved in aqueous DMSO 33% v/v to a 10 mM concentration and were left open to air oxidation at room temperature overnight. […]
the peptides were employed for FA competition assays and IC50 evaluation without further additional […]
Fluorescence anisotropy (FA) assays – General information.
All assays were performed using 384-well plates(Greiner Bio-one, UK). […]
produced as described previously.11 All samples were prepared in 25 mM Tris,150 mM NaCl, 5 mM MgCl2, pH= 7.5, unless otherwise stated, and tested in triplicate using an EnVisionTM 2103 MultiLabel plate reader (PerkinElmer; Waltham, MA, USA).The parameters were set as follows: Excitation wavelength = 480 nm (30 nm bandwidth) and emission wavelength = 535 nm (30 nm bandwidth). Measured data were processed and analysed as previously described.12 Specifically, the perpendicular intensity (P) and parallel intensity (S) were subtracted by the control values and used for calculations of intensity and anisotropy using the following Equations 1, 2, 3, 4, and 5:
I= (2PG) + S Eq. (SI − 5)
r = (S − PG) Eq. (SI − 6)
L = r − r௠௜௡ Eq. (SI − 7)
y = (k + x + [FL]) − ඥ(k + x + [FL]2 − 4 ∗ x ∗ [FL]) Eq. (SI − 8)
y = r + r௠௜௡ − r௠௔௫ Eq. (SI − 9)
Where I = total intensity; P = perpendicular intensity; S = parallel intensity; G = instrument factor; r = anisotropy; Lb = ligand bound fraction; λ = change in intensity between bound and unbound states which […]
FA direct binding assays. […]
starting from 700 μM, diluted over 24 points in a 1/2 regime using the FAM-Ahx-labeled peptides at a final fixed concentration of 50 nM per well.
FA competition assays were performed using the same plates and buffer as described above, with the initial […]
14 points in a 1/2 regime. […]
after 4 h of incubation to enable appropriate sample equilibration. To prevent sample oxidation, when sulfhydryl peptides were analyzed DTT was added to the buffer (5 mM). In competition mode, the average anisotropy and the average standard deviation of the values derived from equation SI-6 were calculated and fit to a sigmoidal logistic model (equation SI-9) using Origin 2021. When using peptides for which full […]
For consistency, all the data […]
indicating the corresponding SD. […]

[1] = as E1, free-sulfhydryl (reduced) species, DTT 5 mM in buffer, WT control (+DTT), mean ± SD, n = 3, read-out: IC50 (red)
[2] = as E1, oxidised (disulfide) species made in situ from 10 mM stock in aqueous DMSO 33% v/v, air, overnight, WT control (+DMSO) given the same DMSO incubation, mean ± SD, n = 3, read-out: IC50 (ox)
[3] = as E1, Table S3 (mal): maleimide-constrained species, WT value is an individual replica control assay, mean ± SD, n = 3, read-out: IC50 (mal)

- IC50 (SD, read-out: IC50): 34 ± 3 µM
Compound: CC(=O)N[C@@H](CCC(=O)O)C(=O)N[C@@H](CCC(=O)O)C(=O)N[C@@H](CO)C(=O)N[C@@H](Cc1ccc(I)cc1)C(=O)N[C@@H](CCCNC(=N)N)C(=O)N[C@@H](CC(=O)O)C(=O)N1CCC[C@H]1C(=O)N[C@@H](C)C(=O)N[C@@H](CCC(=O)O)C(=O)N[C@H](C(=O)N[C@@H](CC(C)C)C(=O)NCC(=O)N[C@H](C(=O)NCC(=O)N[C@@H](C)C(N)=O)[C@@H](C)O)C(C)C [TACC3 522-536_(4-I)525F]

- IC50 (as E1, Table S3 (mal): maleimide-constrained species, WT value is an individual replica control assay, mean ± SD, n = 3, SD, read-out: IC50 (mal)): 244 ± 28 µM
Compound: CC(=O)N[C@@H](CCC(=O)O)C(=O)N[C@@H](CCC(=O)O)C(=O)N[C@@H](CO)C(=O)N[C@H]1CSC2=C(SC[C@@H](C(=O)N[C@@H](C)C(=O)N[C@@H](CCC(=O)O)C(=O)N[C@H](C(=O)N[C@@H](CC(C)C)C(=O)NCC(=O)N[C@H](C(=O)NCC(=O)N[C@@H](C)C(N)=O)[C@@H](C)O)C(C)C)NC(=O)[C@H](CC(=O)O)NC(=O)[C@H](CCCNC(=N)N)NC1=O)C(=O)NC2=O [TACC3 522-536 F525C/P528C (mal)] (Ac-EESCRDCAEVLGTGA-NH2; linker 4-7 via Maleimide(3,4-diyl))

- IC50 [1]: ≥ 500 µM
Compound: CC(=O)N[C@@H](CCC(=O)O)C(=O)N[C@@H](CCC(=O)O)C(=O)N[C@@H](CO)C(=O)N[C@@H](Cc1ccccc1)C(=O)N[C@@H](CCCNC(=N)N)C(=O)N[C@@H](CC(=O)O)C(=O)N1CCC[C@H]1C(=O)N[C@@H](C)C(=O)N[C@@H](CCC(=O)O)C(=O)N[C@H](C(=O)N[C@@H](CS)C(=O)NCC(=O)N[C@H](C(=O)N[C@@H](CS)C(=O)N[C@@H](C)C(N)=O)[C@@H](C)O)C(C)C [TACC3 522-536 L532C/G535C (red)] (Ac-EESFRDPAEVCGTCA-NH2)

- IC50 [1]: ≥ 500 µM
Compound: CC(=O)N[C@@H](CCC(=O)O)C(=O)N[C@@H](CCC(=O)O)C(=O)N[C@@H](CO)C(=O)N[C@@H](Cc1ccccc1)C(=O)N[C@@H](CCCNC(=N)N)C(=O)N[C@@H](CC(=O)O)C(=O)N[C@@H](CS)C(=O)N[C@@H](C)C(=O)N[C@@H](CCC(=O)O)C(=O)N[C@@H](CS)C(=O)N[C@@H](CC(C)C)C(=O)NCC(=O)N[C@H](C(=O)NCC(=O)N[C@@H](C)C(N)=O)[C@@H](C)O [TACC3 522-536 P528C/V531C (red)] (Ac-EESFRDCAECLGTGA-NH2)

- IC50 [1]: ≥ 500 µM
Compound: CC(=O)N[C@@H](CCC(=O)O)C(=O)N[C@@H](CCC(=O)O)C(=O)N[C@@H](CO)C(=O)N[C@@H](Cc1ccccc1)C(=O)N[C@@H](CCCNC(=N)N)C(=O)N[C@@H](CC(=O)O)C(=O)N1CCC[C@H]1C(=O)N[C@@H](CS)C(=O)N[C@@H](CCC(=O)O)C(=O)N[C@H](C(=O)N[C@@H](CS)C(=O)NCC(=O)N[C@H](C(=O)NCC(=O)N[C@@H](C)C(N)=O)[C@@H](C)O)C(C)C [TACC3 522-536 A529C/L532C (red)] (Ac-EESFRDPCEVCGTGA-NH2)

- IC50 [2]: ≥ 500 µM
Compound: CC(=O)N[C@@H](CCC(=O)O)C(=O)N[C@@H](CCC(=O)O)C(=O)N[C@H]1CSSC[C@@H](C(=O)N2CCC[C@H]2C(=O)N[C@@H](C)C(=O)N[C@@H](CCC(=O)O)C(=O)N[C@H](C(=O)N[C@@H](CC(C)C)C(=O)NCC(=O)N[C@H](C(=O)NCC(=O)N[C@@H](C)C(N)=O)[C@@H](C)O)C(C)C)NC(=O)[C@H](CCCNC(=N)N)NC(=O)[C@H](Cc2ccccc2)NC1=O [TACC3 522-536 S524C/D527C (ox)] (Ac-EECFRCPAEVLGTGA-NH2; disulfide 3-6)

- IC50 [3]: ≥ 500 µM
Compound: CC(=O)N[C@@H](CCC(=O)O)C(=O)N[C@@H](CCC(=O)O)C(=O)N[C@@H](CO)C(=O)N[C@@H](Cc1ccccc1)C(=O)N[C@@H](CCCNC(=N)N)C(=O)N[C@@H](CC(=O)O)C(=O)N[C@H]1CSC2=C(SC[C@@H](C(=O)N[C@@H](CC(C)C)C(=O)NCC(=O)N[C@H](C(=O)NCC(=O)N[C@@H](C)C(N)=O)[C@@H](C)O)NC(=O)[C@H](CCC(=O)O)NC(=O)[C@H](C)NC1=O)C(=O)NC2=O [TACC3 522-536 P528C/V531C (mal)] (Ac-EESFRDCAECLGTGA-NH2; linker 7-10 via Maleimide(3,4-diyl) (inferred))

- IC50 (SD, read-out: IC50): 22 ± 1 µM
Compound: CC(=O)N[C@@H](CC(C)C)C(=O)N[C@@H](CCC(=O)O)C(=O)N[C@H]1CSCc2ccc(cc2)-c2ccc(cc2)CSC[C@@H](C(=O)N[C@@H](CC(=O)O)C(=O)N2C[C@H](F)C[C@H]2C(=O)N[C@@H](C)C(=O)N[C@@H](CCC(=O)O)C(=O)N[C@H](C(=O)N[C@@H](CC(C)C)C(N)=O)C(C)C)NC(=O)[C@H](Cc2ccc(Br)cc2)NC(=O)[C@H](CO)NC(=O)[C@H](CCC(=O)O)NC(=O)[C@H](CCC(=O)O)NC(=O)[C@H](CCCCN)NC1=O [TACC3 518-532-L/R-Bph-BrF/fP] (Ac-LECKEES[Phe(4-Br)]CD[Pro(trans-4-F)]AEVL-NH2; linker 3-9 via Biphenyl(4,4'-CH2)2)

- IC50 (SD, read-out: IC50): 138 ± 8 µM
Compound: CC(=O)N[C@@H](CCC(=O)O)C(=O)N[C@@H](CCC(=O)O)C(=O)N[C@@H](CO)C(=O)N[C@@H](Cc1ccc(C#N)cc1)C(=O)N[C@@H](CCCNC(=N)N)C(=O)N[C@@H](CC(=O)O)C(=O)N1CCC[C@H]1C(=O)N[C@@H](C)C(=O)N[C@@H](CCC(=O)O)C(=O)N[C@H](C(=O)N[C@@H](CC(C)C)C(=O)NCC(=O)N[C@H](C(=O)NCC(=O)N[C@@H](C)C(N)=O)[C@@H](C)O)C(C)C [TACC3 522-536_(4-CN) -525F]

- IC50 [2]: ≥ 500 µM
Compound: CC(=O)N[C@H]1CSSC[C@@H](C(=O)N[C@@H](C)C(=O)N[C@@H](CCC(=O)O)C(=O)N[C@H](C(=O)N[C@@H](CC(C)C)C(=O)NCC(=O)N[C@H](C(=O)NCC(=O)N[C@@H](C)C(N)=O)[C@@H](C)O)C(C)C)NC(=O)[C@H](CC(=O)O)NC(=O)[C@H](CCCNC(=N)N)NC(=O)[C@H](Cc2ccccc2)NC(=O)[C@H](CO)NC(=O)[C@H](CCC(=O)O)NC1=O [TACC3 522-536 E522C/P528C (ox)] (Ac-CESFRDCAEVLGTGA-NH2; disulfide 1-7)

- IC50 [2]: ≥ 500 µM
Compound: CC(=O)N[C@@H](CCC(=O)O)C(=O)N[C@@H](CCC(=O)O)C(=O)N[C@@H](CO)C(=O)N[C@@H](Cc1ccccc1)C(=O)N[C@@H](CCCNC(=N)N)C(=O)N[C@H]1CSSC[C@@H](C(=O)N[C@H](C(=O)N[C@@H](CC(C)C)C(=O)NCC(=O)N[C@H](C(=O)NCC(=O)N[C@@H](C)C(N)=O)[C@@H](C)O)C(C)C)NC(=O)[C@H](C)NC(=O)[C@@H]2CCCN2C1=O [TACC3 522-536 D527C/E530C (ox)] (Ac-EESFRCPACVLGTGA-NH2; disulfide 6-9)

- IC50 [3]: ≥ 500 µM
Compound: CC(=O)N[C@@H](CCC(=O)O)C(=O)N[C@@H](CCC(=O)O)C(=O)N[C@H]1CSC2=C(SC[C@@H](C(=O)N3CCC[C@H]3C(=O)N[C@@H](C)C(=O)N[C@@H](CCC(=O)O)C(=O)N[C@H](C(=O)N[C@@H](CC(C)C)C(=O)NCC(=O)N[C@H](C(=O)NCC(=O)N[C@@H](C)C(N)=O)[C@@H](C)O)C(C)C)NC(=O)[C@H](CCCNC(=N)N)NC(=O)[C@H](Cc3ccccc3)NC1=O)C(=O)NC2=O [TACC3 522-536 S524C/D527C (mal)] (Ac-EECFRCPAEVLGTGA-NH2; linker 3-6 via Maleimide(3,4-diyl) (inferred))

- IC50 [2]: ≥ 200 µM
Compound: Ac-LECKEESFCDPAEVL-NH2 (disulfide 3-9 (inferred)) [TACC3 518-532 L520C/R526C (ox), disulfide form of the Cys variant]
